Results reported in patent US4988697A, “Fungicidal compositions and method” (Merck & Co., Inc., priority 1989, dated 1991).
≈ marks a conversion by molar mass, not a printed value.

Legend:
Type in all cases: cell-based
A. niger = test: MIC against fungal panel, A. niger
Procedure: (§1) First the MIC for the β-lactone compound and the MIC for the ketoconazole were determined against an array of organisms. Thereafter, the effects on the MIC of adding 0.031, 0.125, 0.5 and 2 μg/ml of ketoconazole were determined.

C. miyabeamis = test: MIC against fungal panel, C. miyabeamis
Procedure: In a manner similar to that above described for effect against Candida albicans the synergistic effect of the combination of the β-lactone compound and ketoconazole against a fungal panel was determined by plating on potato dextrose agar.
as §1

F. oxysporium = test: MIC against fungal panel, F. oxysporium
Procedure: as §1

Candida albicans MY 1055 [1] = test: Minimum Fungicidal Concentration, plating of MIC tubes; conditions: MY1055, ≥95% reduction of viable cells, 37° C., 17 hours
Procedure: In the manner above described for the determination of minimum inhibitory concentration, broth dilution assay tubes were prepared ranging from 0.625 to 100 μg/ml and 1 milliliter of YNB/G inoculated with Candida albicans MY 1055 sterile test tubes. The tubes were incubated at 250 rpm at 37° C. for 17 hours. The minimum fungicidal concentration (MFC) was determined by serially diluting samples of MIC tubes in 0.9% saline. Aliquots were plated on Sabouraud dextrose agar. The plates were incubated at 37° for 48 hr. and the colonies counted. From the counts obtained, the number of cfu/ml in the undiluted drug-culture tube was calculated. The MFC is defined as the minimum amount of drug required to reduce the number of viable cells initially present in the drug-culture tubes greater than or equal to 95%. The MFC was 10 μg/ml.

Candida albicans MY 1055 [2] = test: Effect of Azole Antifungals on the MIC'S of the β-Lactone Compound
From the text: The β-lactone compound and the following conazole compounds: cis-1-acetyl-4-[4-[[2-(2,4-dichlorophenyl)-2-1H-imidazole-1-ylmethyl)-1,3- dioxolan-4-yl]-methoxyl]phenyl]piperazine (ketoconazole), α-(2,4-difluorophenyl)-α-(1H-1,4-triazol-1-ylmethyl)1H-1,2-4-triazole-1-ethanol (fluconazole and cis-4-[4-[4-[4-[[2-(2,4-dichlorophenyl)-2-(1H-1,2,4-triazole-1-ylmethyl)-1,3-dioxolan-4-yl]-methoxy] phenyl]-1-piperazinyl]phenyl-2,4-dihydro-2-(1-methylpropyl)-3H-1,2,4-triazol-3-one (itraconazole), were dissolved in DMSO and serially diluted in the manner previously described.
Assay tubes were prepared in a manner similar to that previously described and in operations carried out in a manner similar to that previously described, the effect of various conazole compounds on the MIC of the β-lactone compound were determined.

C. neoformans = test: MIC against fungal panel, C. neoformans
Procedure: as §1

C. albicans (Y1750) = test: MIC against fungal panel, C. albicans (Y1750)
Procedure: as §1

C. albicans (Y1055) = test: MIC against fungal panel, C. albicans (Y1055)
Procedure: as §1

U. zeae = test: MIC against fungal panel, U. zeae
Procedure: as §1

Candida albicans MY 1055 [3] = test: Minimum Inhibitory Concentration, broth dilution; conditions: MY1055, YNB/G, 37° C., 17 hr
Procedure: 11-(3-hydroxymethyl-4-oxo-2-oxetanyl)-7-methyl-2,4-undecadienoic acid (β-lactone compound), was solubilized in 100 percent dimethylsulfoxide (DMSO). Twofold dilutions were made with DMSO to obtain final drug concentrations in the broth dilution assay tubes ranging from 0.625 to 100 μg/ml.
The Candida albicans, MY 1055, yeast culture maintained in yeast nitrogen base/glucose (1/2 percent), YNB/G, was transferred to fresh medium and incubated 7 hours at 37° with shaking at 250 rpm. After incubation, each culture was diluted to A600 =0.0004 U/ml which was previously determined to be equal to 3000 cfu/ml (colony forming units per milliliter).
1 milliliter of YNB/G inoculated with yeast culture was added to sterile test tubes. The tubes were incubated at 250 rpm, 37° C. for 17 hr. The minimum inhibitory concentrations (MIC) was recorded as the lowest concentration of drug […].

Candida albicans = test: Synergistic and fungicidal effect on exponential phase cultures (CFU/ml over time); conditions: ketoconazole 1 μg/ml, alone or combined
Procedure: Synergistic and fungicidal effects were determined by treating exponential phase Candida albicans cultures with β-Lactone at MIC and MFC levels and ketoconazole at 0.1 μg/ml or a 1 μg/ml alone or in combination. Exponential phase cultures were prepared by diluting an overnight culture 1:50 or 1:1000 in YNB/G. After incubating the diluted cells 7 or 17 hrs. at 37° C., the exponential phase cells were diluted in YNB/G to A600 =0.0004 u/ml to obtain 3000 cfu/ml.
10 microliters (μl) of β-lactone compound or ketoconazole prepared in DMSO was added to 1 ml of diluted exponential phase cells. The tubes were incubated at 37° C. at 250 rpm for 27 hours. Periodically, aliquots were diluted in 0.9% saline and plated on Sabouraud dextrose agar plates to determine the number of cfu/ml.

CC(=CC(=O)O)C=C(C)CC(C)CCCCC1OC(=O)C1CO (stereo not drawn) [β-Lactone Compound]
MIC, β-Lactone Compound in Presence of Ketoconazole (A. niger; ketoconazole 0 μg/ml): > 50 µg/mL
MIC, β-Lactone Compound in Presence of Ketoconazole (A. niger; ketoconazole 0.031 μg/ml): > 50 µg/mL
MIC, β-Lactone Compound in Presence of Ketoconazole (A. niger; ketoconazole 0.123 μg/ml): > 50 µg/mL
MIC, β-Lactone Compound in Presence of Ketoconazole (A. niger; ketoconazole 0.5 μg/ml): > 50 µg/mL
MIC, β-Lactone Compound in Presence of Ketoconazole (A. niger; ketoconazole 2 μg/ml): > 50 µg/mL
MIC, β-Lactone Compound in Presence of Ketoconazole (C. miyabeamis; ketoconazole 0 μg/ml): 0.78 µg/mL
MIC, β-Lactone Compound in Presence of Ketoconazole (C. miyabeamis; ketoconazole 0.031 μg/ml): 0.39 µg/mL
MIC, β-Lactone Compound in Presence of Ketoconazole (C. miyabeamis; ketoconazole 0.123 μg/ml): 0.78 µg/mL
MIC, β-Lactone Compound in Presence of Ketoconazole (C. miyabeamis; ketoconazole 2 μg/ml): N.G.
MIC, β-Lactone Compound in Presence of Ketoconazole (F. oxysporium; ketoconazole 0 μg/ml): > 50 µg/mL
MIC, β-Lactone Compound in Presence of Ketoconazole (F. oxysporium; ketoconazole 0.031 μg/ml): > 50 µg/mL
MIC, β-Lactone Compound in Presence of Ketoconazole (F. oxysporium; ketoconazole 0.123 μg/ml): > 50 µg/mL
MIC, β-Lactone Compound in Presence of Ketoconazole (F. oxysporium; ketoconazole 0.5 μg/ml): > 50 µg/mL
MIC, β-Lactone Compound in Presence of Ketoconazole (F. oxysporium; ketoconazole 2 μg/ml): > 50 µg/mL
MFC (Candida albicans MY 1055 [1]): 10 µg/mL (≈ 30.8 µM)
MIC of β-lactone compound (Candida albicans MY 1055 [2]; fluconazole 0 μg/ml): 2.5 µg/mL
MIC of β-lactone compound (Candida albicans MY 1055 [2]; itraconazole 0 μg/ml): 2.5 µg/mL
MIC of β-lactone compound (Candida albicans MY 1055 [2]; ketoconazole 0 μg/ml): 2.5 µg/mL
MIC of β-lactone compound (Candida albicans MY 1055 [2]; with fluconazole 0.3125 μg/ml): 1.25 µg/mL
MIC of β-lactone compound (Candida albicans MY 1055 [2]; with fluconazole 1.25 μg/ml): 0.625 µg/mL
MIC of β-lactone compound (Candida albicans MY 1055 [2]; with fluconazole 5.0 μg/ml): 0.625 µg/mL
MIC of β-lactone compound (Candida albicans MY 1055 [2]; with itraconazole 0.3125 μg/ml): 2.5 µg/mL
MIC of β-lactone compound (Candida albicans MY 1055 [2]; with itraconazole 1.25 μg/ml): 1.25 µg/mL
MIC of β-lactone compound (Candida albicans MY 1055 [2]; with itraconazole 5.0 μg/ml): 1.25 µg/mL
MIC of β-lactone compound (Candida albicans MY 1055 [2]; with ketoconazole 0.3125 μg/ml): 0.625 µg/mL
MIC of β-lactone compound (Candida albicans MY 1055 [2]; with ketoconazole 1.25 μg/ml): 0.625 µg/mL
MIC of β-lactone compound (Candida albicans MY 1055 [2]; with ketoconazole 5.0 μg/ml): 0.625 µg/mL
MIC, β-Lactone Compound in Presence of Ketoconazole (C. neoformans; ketoconazole 0 μg/ml): 12.5 µg/mL
MIC, β-Lactone Compound in Presence of Ketoconazole (C. neoformans; ketoconazole 0.031 μg/ml): 12.5 µg/mL
MIC, β-Lactone Compound in Presence of Ketoconazole (C. neoformans; ketoconazole 0.123 μg/ml): 3.125 µg/mL
MIC, β-Lactone Compound in Presence of Ketoconazole (C. neoformans; ketoconazole 0.5 μg/ml): 0.19 µg/mL
MIC, β-Lactone Compound in Presence of Ketoconazole (C. neoformans; ketoconazole 2 μg/ml): 0.19 µg/mL
MIC, β-Lactone Compound in Presence of Ketoconazole (C. albicans (Y1750); ketoconazole 0 μg/ml): 3.125 µg/mL
MIC, β-Lactone Compound in Presence of Ketoconazole (C. albicans (Y1750); ketoconazole 0.031 μg/ml): 0.78 µg/mL
MIC, β-Lactone Compound in Presence of Ketoconazole (C. albicans (Y1750); ketoconazole 0.123 μg/ml): 0.195 µg/mL
MIC, β-Lactone Compound in Presence of Ketoconazole (C. albicans (Y1750); ketoconazole 0.5 μg/ml): 0.19 µg/mL
MIC, β-Lactone Compound in Presence of Ketoconazole (C. albicans (Y1750); ketoconazole 2 μg/ml): 0.19 µg/mL
MIC, β-Lactone Compound in Presence of Ketoconazole (C. albicans (Y1055); ketoconazole 0 μg/ml): 3.125 µg/mL
MIC, β-Lactone Compound in Presence of Ketoconazole (C. albicans (Y1055); ketoconazole 0.031 μg/ml): 0.78 µg/mL
MIC, β-Lactone Compound in Presence of Ketoconazole (C. albicans (Y1055); ketoconazole 0.123 μg/ml): 0.78 µg/mL
MIC, β-Lactone Compound in Presence of Ketoconazole (C. albicans (Y1055); ketoconazole 0.5 μg/ml): 0.19 µg/mL
MIC, β-Lactone Compound in Presence of Ketoconazole (C. albicans (Y1055); ketoconazole 2 μg/ml): 0.19 µg/mL
MIC, β-Lactone Compound in Presence of Ketoconazole (U. zeae; ketoconazole 0 μg/ml): 3.125 µg/mL
MIC, β-Lactone Compound in Presence of Ketoconazole (U. zeae; ketoconazole 0.031 μg/ml): 3.125 µg/mL
MIC, β-Lactone Compound in Presence of Ketoconazole (U. zeae; ketoconazole 0.123 μg/ml): 0.78 µg/mL
MIC, β-Lactone Compound in Presence of Ketoconazole (U. zeae; ketoconazole 0.5 μg/ml): 0.19 µg/mL
MIC, β-Lactone Compound in Presence of Ketoconazole (U. zeae; ketoconazole 2 μg/ml): 0.19 µg/mL
MIC (Candida albicans MY 1055 [3]): 2.5 µg/mL (≈ 7.71 µM)
Fungal Growth (Candida albicans; Table 1, 2 hours, β-lactone 2.5 μg/ml): 3.85 × 10^3 CFU/ML
Fungal Growth (Candida albicans; Table 1, 4.5 hours, β-lactone 2.5 μg/ml): 8.80 × 10^3 CFU/ML
Fungal Growth (Candida albicans; Table 1, 7 hours, β-lactone 2.5 μg/ml): 1.12 × 10^4 CFU/ML
Fungal Growth (Candida albicans; Table 1, 11 hours, β-lactone 2.5 μg/ml): 1.28 × 10^4 CFU/ML
Fungal Growth (Candida albicans; Table 1, 17 hours, β-lactone 2.5 μg/ml): 9.35 × 10^3 CFU/ML
Fungal Growth (Candida albicans; Table 1, 22 hours, β-lactone 2.5 μg/ml): 1.23 × 10^4 CFU/ML
Fungal Growth (Candida albicans; Table 1, 27 hours, β-lactone 2.5 μg/ml): 1.80 × 10^4 CFU/ML
Fungal Growth (Candida albicans; Table 2, 2 hours, β-lactone 10 μg/ml): 6.50 × 10^3 CFU/ML
Fungal Growth (Candida albicans; Table 2, 4.5 hours, β-lactone 10 μg/ml): 7.50 × 10^3 CFU/ML
Fungal Growth (Candida albicans; Table 2, 7 hours, β-lactone 10 μg/ml): 3.35 × 10^3 CFU/ML
Fungal Growth (Candida albicans; Table 2, 11 hours, β-lactone 10 μg/ml): 8.70 × 10^2 CFU/ML
Fungal Growth (Candida albicans; Table 2, 17 hours, β-lactone 10 μg/ml): 5.00 × 10^1 CFU/ML
Fungal Growth (Candida albicans; Table 2, 22 hours, β-lactone 10 μg/ml): 6.50 × 10^1 CFU/ML
Fungal Growth (Candida albicans; Table 2, 27 hours, β-lactone 10 μg/ml): 7.50 × 10^1 CFU/ML
